Test results published in US11730743B2, “Protection of cells from degeneration and treatment of geographic atrophy” (University of Kentucky Research Foundation, priority 2012, dated 2023).
The star is where a group is joined. Cbz = O=C(OCc1ccccc1)*; CH2F = FC*

Key:
wild-type mice [1] = assay: Alu RNA- or pAlu-induced RPE degeneration after subretinal injection (fundus photographs, ZO-1 flat mounts); format: in vivo; details: test agent intravitreous; for pAlu-induced RPE degeneration: subretinal pAlu
Procedure: Subretinal injection and imaging. Subretinal injections (1 μL) in mice were performed using a Pico-Injector (PLI-100, Harvard Apparatus). In vivo transfection of plasmids was achieved using 10% Neuroporter (Genlantis). Fundus imaging was performed on a TRC-50 IX camera (Topcon) linked to a digital imaging system (Sony). Immunolabeling of RPE flat mounts was performed using antibodies against human zonula occludens-1 (Invitrogen).
(§1) Fundus photography. Retinal photographs of dilated mouse eyes were taken with a TRC-50 IX camera (Topcon) linked to a digital imaging system (Sony).
(§2) Immunolabeling. Human eyes fixed in 2-4% paraformaldehyde were prepared as eyecups, cryoprotected in 30% sucrose, embedded in optimal cutting temperature compound (Tissue-Tek OCT; Sakura Finetek), and cryosectioned into 10 μm sections. Depigmentation was achieved using 0.25% potassium permanganate and 0.1% oxalic acid. Immunohistochemical staining was performed with the rabbit antibody against NLRP3 (1:100, Sigma Aldrich) or rabbit antibody against Caspase-1 (prediluted, AbCam). Isotype IgG was substituted for the primary antibody to assess the specificity of the staining. Bound antibody was detected with biotin-conjugated secondary antibodies, followed by incubation with ABC reagent and visualized by Vector Blue (Vector Laboratories). Levamisole (Vector Laboratories) was used to block endogenous alkaline phosphatase activity. Slides were washed in PBS, counterstained with neutral red (Fisher Scientific), rinsed with deionized water, air dried, and then mounted in Vectamount (Vector Laboratories). Fluorescent labeling of human tissue was performed with the rabbit antibody against PYCARD (1:50, Clone N-15, Santa Cruz Biotechnology). Immunolabeling was visualized by fluorescently conjugated anti-rabbit secondary antibody (Invitrogen). Tissue autofluorescence was quenched by incubating the sections in 0.3% Sudan black (Fisher Scientific). Sections were mounted in Vectashield with DAPI (Vector Laboratories). Mouse RPE/choroid flat mounts were fixed with 4% paraformaldehyde or 100% methanol, stained with rabbit antibodies against human zonula occludens-1 (1:100, Invitrogen) and visualized with Alexa594 (Invitrogen). All images were obtained using the Leica SP-5 or Zeiss Axio Observer Z1 microscopes.
Subretinal injection. Subretinal injections (1 μL) in mice were performed using a Pico-Injector (PLI-100, Harvard Apparatus). In vivo transfection of plasmids coding for two different Alu sequences (pAlu) or empty control vector (pNull) (Bennett et al., 2008; Kaneko et al., 2011; Shaikh et al., 1997) was achieved using 10% Neuroporter (Genlantis). AAV1-BEST1-Cre (Alexander and Hauswirth, 2008) or AAV1-BEST1-GFP were injected at […] pfu/mL and in vitro transcribed Alu RNA was injected at 0.3 mg/mL.
(§3) Drug treatments. siRNAs formulated in siRNA buffer (20 mM KCL, 0.2 mM MgCl2 in HEPES buffer at pH 7.5; Dharmacon) or phosphate buffered saline (PBS; Sigma-Aldrich); the TLR4 antagonist Ultra Pure Rhodobacter sphaeroides LPS (LPS-RS, InvivoGen), a peptide inhibitor of MyD88 homodimerization IMG-2005 (IMGENEX), control inhibitor (IMGENEX), recombinant IL-18 (Medical & Biological Laboratories), neutralizing rat antibodies against mouse IL-1β (IMGENEX), neutralizing rat antibodies against mouse IL-18 (Medical & Biological Laboratories), isotype control IgGs (R&D Systems or eBioscience as appropriate), Caspase-1 inhibitor Z-WEHD-FMK (R&D Systems), Caspase-3 inhibitor Z-DEVD-FMK (R&D Systems), Caspase control inhibitor Z-FA-FMK (R&D Systems), (2R,4R)-APDC (Enzo Life Sciences), Glipizide (Sigma-Aldrich), Glyburide (Sigma-Aldrich), and P2X7 receptor antagonist A438079 (Tocris Bioscience) were dissolved in phosphate buffered saline (PBS; Sigma-Aldrich) or dimethyl sulfoxide (DMSO; Sigma-Aldrich), and injected into the vitreous humor in a total volume of 1 μL with a 33-gauge Exmire microsyringe (Ito Corporation). […]

Dicer1f/f mice = assay: RPE degeneration induced by subretinal AAV1-BEST1-Cre (DICER1 loss); format: in vivo; details: inhibitor intravitreous
Procedure: as §2, with “Sections were mounted in Vectashield with DAPI (Vector Laboratories). Mouse RPE/choroid flat mounts were fixed with 4% paraformaldehyde or 100% methanol, stained with rabbit antibodies against human zonula occludens-1 (1:100, Invitrogen) and visualized with Alexa594 (Invitrogen). All images were obtained using the Leica SP-5 or Zeiss Axio Observer Z1 microscopes.” left out

IRAK1/4 = assay: Western blot of phosphorylated IRAK1/4 in human RPE cells; format: cell-based; details: normalized to Vinculin
Procedure: (§4) Protein abundance and activity. Protein abundance was assessed by Western blot analysis using primary antibodies recognizing Caspase-1 (1:500; Invitrogen), pIRAK1 (1:500; Thermo Scientific), pIRAK4 (1:500, Abbomax, Inc), PYCARD (1:200, Santa Cruz Biotechnology), NLRP3 (1:500, Enzo Life Sciences) and Vinculin (1:1,000; Sigma-Aldrich). Caspase-1 activity was visualized using Caspalux1 E1D2 (OncoImmunin) reagent according to the manufacturer's instructions.
Western blotting. Tissues or cells were homogenized in lysis buffer (10 mM Tris base, pH 7.4, 150 mM NaCl, 1 mM EDTA, 1 mM EGTA, 1% Triton X-100, 0.5% NP-40, protease and phosphatase inhibitor cocktail (Roche)). Protein concentrations were determined using a Bradford assay kit (Bio-Rad) with bovine serum albumin as a standard. Proteins (40-100 μg) were run on NuPAGE Bis-Tris gels (Invitrogen) and transferred to Immun-Blot PVDF membranes (Bio-Rad). Cells were scraped in hot Laemmli buffer (62.5 mM Tris base, pH 6.8, 2% SDS, 5% 2-Mercaptoethanol, 10% Glycerol, 0.01% Bromophenol Blue). Samples were boiled and run on 4-20% NuPAGE Tris-Glycine gels (Invitrogen). […] Protein loading was assessed by immunoblotting using an anti-Vinculin antibody (1:1,000; Sigma-Aldrich). […]

Caspase-1 = biological target: T1, Caspase-1 (Homo sapiens, UniProt P29466); assay: Caspase-1 activation in cultured cells (western blot p20, Caspalux1 substrate cleavage); format: cell-based; details: human RPE cells; Caspalux1
T1 construct: endogenous in cells; host or cells: primary human RPE cells; also THP-1 and HeLa cells
T1 sequence (P29466 120-297 limits assumed): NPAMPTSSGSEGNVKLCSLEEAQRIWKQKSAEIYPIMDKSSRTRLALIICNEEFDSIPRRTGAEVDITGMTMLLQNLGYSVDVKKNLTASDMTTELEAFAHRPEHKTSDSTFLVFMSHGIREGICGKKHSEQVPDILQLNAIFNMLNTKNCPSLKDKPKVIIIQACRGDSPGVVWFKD
T1 sequence (P29466 317-404 limits assumed): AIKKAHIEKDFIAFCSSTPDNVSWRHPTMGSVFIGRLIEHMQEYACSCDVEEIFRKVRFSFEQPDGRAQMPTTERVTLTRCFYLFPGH
Procedure: as §4
Western blotting. Tissues or cells were homogenized in lysis buffer (10 mM Tris base, pH 7.4, 150 mM NaCl, 1 mM EDTA, 1 mM EGTA, 1% Triton X-100, 0.5% NP-40, protease and phosphatase inhibitor cocktail (Roche)). Protein concentrations were determined using a Bradford assay kit (Bio-Rad) with bovine serum albumin as a standard. Proteins (40-100 μg) were run on NuPAGE Bis-Tris gels (Invitrogen) and transferred to Immun-Blot PVDF membranes (Bio-Rad). Cells were scraped in hot Laemmli buffer (62.5 mM Tris base, pH 6.8, 2% SDS, 5% 2-Mercaptoethanol, 10% Glycerol, 0.01% Bromophenol Blue). Samples were boiled and run on 4-20% NuPAGE Tris-Glycine gels (Invitrogen). The transferred membranes were blocked for 1 h at RT and incubated with antibodies against human Caspase-1 (1:500; Invitrogen), mouse Caspase1 (1:500; MBL), NLRP3 (1:1000; Enzo Life Sciences), PYCARD (1:1000, RayBiotech), phospho-IRAK1 (S376) (1:500, Thermo Scientific), phospho-IRAK4 (T345) (1:500, AbboMax), DICER1 (1:2,000; Bethyl), MyD88 (1:1,000; Cell Signaling), and mouse IL-18 (1:200; MBL) at 4° C. overnight. Protein loading was assessed by immunoblotting using an anti-Vinculin antibody (1:1,000; Sigma-Aldrich). The secondary antibodies were used (1:5,000) for 1 h at RT. […]
Caspase-1 activity. […] Caspalux1E1D2 signal was quantified reading the fluorescence (excitation 552 nm, emission 580 nm) using a Synergy 4 reader (Biotek). Quantification of fluorescence from images was performed by converting images into grayscale in Adobe Photoshop CS5, and measuring the integrated density of black and white images using ImageJ software (NIH) (Bogdanovich et al., 2008).

IL-18 = assay: Western blot of IL-18 maturation in RPE cell lysates of wild-type mice; format: in vivo; details: inhibitor intravitreous
Procedure: as §3
Western blotting. […] Protein concentrations were determined using a Bradford assay kit (Bio-Rad) with bovine serum albumin as a standard. […] Protein loading was assessed by immunoblotting using an anti-Vinculin antibody (1:1,000; Sigma-Aldrich). […]

human RPE cells = test system: human RPE cells
Procedure: Cell viability. Cell viability measurements were performed using the CellTiter 96 AQueous One Solution Cell Proliferation Assay (Promega) in according to the manufacturer's instructions.
Cell culture. All cell cultures were maintained at 37° C. and 5% CO2. Primary mouse RPE cells were isolated as previously described (Yang et al., 2009) and grown in Dulbecco Modified Eagle Medium (DMEM) supplemented with 20% FBS and standard antibiotics concentrations. Primary human RPE cells were isolated as previously described (Yang et al., 2008) and maintained in DMEM supplemented with 10% FBS and antibiotics. HeLa cells were maintained in DMEM supplemented with 20% FBS and standard antibiotics concentrations. THP-1 cells were cultured in RPMI 1640 medium supplemented with 10% FBS and antibiotics.
Transient transfection. Human or mouse RPE cells were transfected with pUC19, pAlu, pCDNA3.1/Dicer-FLAG, pCDNA3.1, Alu RNA, NLRP3 siRNA sense, PYCARD siRNA sense, MyD88 siRNA sense, DICER1 antisense oligonucleotide (AS), control (for DICER1) AS, Alu AS, and control (for Alu) AS using Lipofectamine 2000 (Invitrogen) according to the manufacturer's instructions.
Cell viability. MTS assays were performed using the CellTiter 96 AQueous One Solution Cell Proliferation Assay (Promega) according to the manufacturer's instructions. For examining the cytoprotective effect of glycine in Alu RNA induced cell death, human RPE cells were transfected with pNull/pAlu. At 6 h post-transfection the cells were incubated with complete media containing glycine (5 mM) or vehicle, and cell viability was assessed after 24 h. Similarly, human RPE cells primed with LPS (5 μg/ml for 6 h) were treated with ATP (25 μM) in the presence of glycine containing media (5 mM). 30 min post ATP cell viability was assessed as described above.

wild-type mice [2] = assay: Laser-induced choroidal neovascularization; format: in vivo; details: intravitreous injection
mice = assay: RPE degeneration induced by intravitreous recombinant IL-18; format: in vivo; details: for RPE degeneration induced by recombinant IL-18: intravitreous
Procedure: as §1
as §2, with “microscopes. […]” for “microscopes.”

Caspase-3 = Caspase-3 activation in the RPE of wild-type mice; format: in vivo; details: IL-18 alone
Procedure: Drug treatments. siRNAs formulated in siRNA buffer (20 mM KCL, 0.2 mM MgCl2 in HEPES buffer at pH 7.5; Dharmacon) or phosphate buffered saline (PBS; Sigma-Aldrich); the TLR4 antagonist Ultra Pure Rhodobacter sphaeroides LPS (LPS-RS, InvivoGen), a peptide inhibitor of MyD88 homodimerization IMG-2005 (IMGENEX), control inhibitor (IMGENEX), recombinant IL-18 (Medical & Biological Laboratories), neutralizing rat antibodies against mouse IL-1β (IMGENEX), neutralizing rat antibodies against mouse IL-18 (Medical & Biological Laboratories), isotype control IgGs (R&D Systems or eBioscience as appropriate), Caspase-1 inhibitor Z-WEHD-FMK (R&D Systems), Caspase-3 inhibitor Z-DEVD-FMK (R&D Systems), Caspase control inhibitor Z-FA-FMK (R&D Systems), (2R,4R)-APDC (Enzo Life Sciences), Glipizide (Sigma-Aldrich), Glyburide (Sigma-Aldrich), and P2X7 receptor antagonist A438079 (Tocris Bioscience) were dissolved in phosphate buffered saline (PBS; Sigma-Aldrich) or dimethyl sulfoxide (DMSO; Sigma-Aldrich), and injected into the vitreous humor in a total volume of 1 μL with a 33-gauge Exmire microsyringe (Ito Corporation). […] As a control, Luc siRNA-chol (17+2 nt) was used with identical dosages.
Caspase-3 activity. The caspase-3 activity was measured using Caspase-3 Fluorimetric Assay (R&D Systems) according to the manufacturer's instruction.

With Cbz-WEHD-CH2F the “pAlu-induced RPE degeneration” value (wild-type mice [1]) was “blocked”, the “AAV1-BEST1-Cre-induced RPE degeneration” value (Dicer1f/f mice) was “blocked” and the “Alu RNA-induced phosphorylation of IRAK1/4” value (IRAK1/4) was “reduced”. The “Alu RNA-induced fluorescent substrate cleavage (Caspase-1 activity)” value (Caspase-1) was “blocked” and the “pAlu-induced IL-18 maturation” value (IL-18) was “blocked”.

With `O=C(Nc1nc2ccccc2n1CCN1CCOCC1)c1cccc([N+](=O)[O-])c1` [N-(2-Morpholinylethyl)-2-(3-nitrobenzoylamido)-benzimidazole] the “Alu RNA-induced RPE degeneration” value (wild-type mice [1]; subretinal Alu RNA) was “blocked”, the “Alu RNA-induced cytotoxicity, viability of human RPE cells” value (human RPE cells) was “protects” and the “pAlu-induced cytotoxicity, viability of human RPE cells” value (human RPE cells) was “protects”. The laser-induced choroidal neovascularization (wild-type mice [2]) was “reduced”.

For `COc1ccc(Cl)cc1C(=O)NCCc1ccc(S(=O)(=O)NC(=O)NC2CCCCC2)cc1` [glyburide, Glyburide], the “pAlu-induced RPE degeneration” value (wild-type mice [1]) was “inhibited”.

With Z-DEVD-FMK the “IL-18-induced RPE degeneration” value (mice; wild-type mice, inhibitor intravitreous) was “blocked”.

With `NCC(=O)O` [glycine] the “human RPE cell death induced by LPS+ATP” value (human RPE cells; LPS 5 μg/ml 6 h, ATP 25 μM, glycine 5 mM, 30 min post ATP) was “inhibited”.

For `Clc1cccc(-c2nnnn2Cc2cccnc2)c1Cl` [A438079], the “pAlu-induced RPE degeneration” value (wild-type mice [1]) was “blocked”.

B1: Recombinant IL-18: recombinant IL-18 (Medical & Biological Laboratories) (protein, UniProt P70380 36-192, looked up)
Interleukin-18: NFGRLHCTTAVIRNINDQVLFVDKRQPVFEDMTDIDQSASEPQTRLIIYMYKDSEVRGLAVTLSVKDSKMSTLSCKNKIISFEEMDPPENIDDIQSDLIFFQKRVPGHNKMEFESSLYEGHFLACQKEDDAFKLILKKKDENGDKSVMFTLTNLHQS
For B1, the “RPE degeneration induced by recombinant IL-18” value (mice; Casp1−/− mice) was “induced RPE degeneration”, the “RPE degeneration induced by recombinant IL-18” value (mice; wild-type mice) was “induced RPE degeneration” and the “Caspase-3 activation in the RPE” value (Caspase-3) was “induced Caspase-3 activation”.
